The record followed here is patent publication US5504190A, “Equimolar multiple oligomer mixtures, especially oligopeptide mixtures” (priority 1994, dated 1996).

≈ marks a conversion by molar mass, not a printed value.

One experiment deals with Staphylococcus aureus (ATCC 29213). Description: microbe, parasite or virus in culture. Conditions: 7-mer studies, Tables 5 and 6 and parent 6-mer. The protocol: Escherichia coli (ATCC 25922) was used as Gram-negative (-) and Staphylococcus aureus (ATCC 29213) as Gram-positive (+) bacteria. Bacteria were grown overnight (about 18 hours) at 37° C. in Mueller-Hinton (MH) broth. This culture was reinoculated and incubated at 37° C. to reach the exponential phase of bacteria growth; i.e., a final bacterial suspension containing about 10^5 to 5×10^5 colony-forming units (CFU)/ml. The concentration of cells was established by plating 100 μl of different dilutions of the culture solution (e.g., 10^-2, 10^-3 and 10^-4) onto solid agar plates. Following an overnight (about 18 hours) incubation at 37° C., the CFU thus formed were counted on each agar plate.
96-Well tissue culture plates were utilized, with eight wells per plate containing only medium as control blanks, whereas eight other wells contained medium plus cells as a positive growth control. These controls were used to detect possible medium contamination and to provide a measure of uninhibited growth of the microorganisms.
For initial screening studies, oligopeptide sets were added to the bacterial suspension to reach a final concentration of 1 mg/ml.
The plates were incubated overnight (about 18 hours) at 37° C., and the optical density (OD) determined at 620 nm after different times of incubation.
Regarding Ac-CRRWWRF-NH2 [CRRWWRF], the IC-50 was found to be 6.3 µg/mL and the MIC was 8 to 16 µg/mL.
Regarding Ac-FRRWWRF-NH2 [FRRWWRF], the IC-50 is 5.9 µg/mL and the MIC fell in the range of 8 to 16 µg/mL.
In the same order, the values of Ac-LRRWWRF-NH2 [LRRWWRF] are 6.1 µg/mL and 8 to 16 µg/mL.
In the same order, the values of Ac-RRRWWRF-NH2 [RRRWWRF] are 8 µg/mL and 8 to 16 µg/mL.
For the compound “Ac-RRWWRF-NH2 [RRWWRF, Ac-Arg-Arg-Trp-Trp-Arg-PheNH2]”, the IC-50 was determined as 8.7 µg/mL.
As to Ac-RRWWRFC-NH2 [RRWWRFC], the IC-50 came to 6.2 µg/mL and the MIC is 8 to 16 µg/mL.
Regarding Ac-RRWWRFI-NH2 [RRWWRFI], the IC-50 amounted to 6.9 µg/mL and the MIC was 8 to 16 µg/mL.
As to Ac-RRWWRFL-NH2 [RRWWRFL], the IC-50 came out at 5.9 µg/mL and the MIC is 8 to 16 µg/mL.
Take Ac-RRWWRFV-NH2 [RRWWRFV]: the IC-50 was 7.9 µg/mL and the MIC was 8 to 16 µg/mL.
Turning to Ac-RRWWRFY-NH2 [RRWWRFY], the IC-50 is 7.6 µg/mL and the MIC lay within 8 to 16 µg/mL.

Still in this experiment, the particulars now being: ATCC 29213, 18 h.
“Ac-RRWWCR-NH2 [RRWWCR, Ac-Arg-Arg-Trp-Trp-Cys-Arg-NH2]” gave an MIC of 3.906 µg/mL.
On to “Ac-RRWWRF-NH2 [RRWWRF, Ac-Arg-Arg-Trp-Trp-Arg-PheNH2]”, for which the MIC fell in the range of 8 to 16 µg/mL.

Still in this experiment, the particulars now being: Staphylococcus aureus, ATCC29213.
For the compound `CC1(C)S[C@@H]2[C@H](NC(=O)[C@H](N)c3ccccc3)C(=O)N2[C@H]1C(=O)O` [Ampicillin, reference compound], the MIC came to 4 µg/mL (≈ 11.4 µM).
`CC[C@H]1OC(=O)[C@H](C)[C@@H](O[C@H]2C[C@@](C)(OC)[C@@H](O)[C@H](C)O2)[C@H](C)[C@@H](O[C@@H]2O[C@H](C)C[C@H](N(C)C)[C@H]2O)[C@](C)(O)C[C@@H](C)C(=O)[C@H](C)[C@@H](O)[C@]1(C)O` [Erythromycin, reference compound] showed an MIC of 0.5 µg/mL (≈ 0.681 µM).
On the same count and under the same terms, as for `CN(C)[C@@H]1C(O)=C(C(N)=O)C(=O)[C@@]2(O)C(O)=C3C(=O)c4c(O)cccc4[C@@](C)(O)[C@H]3C[C@@H]12` [Tetracycline, reference compound], the figure is 0.5 µg/mL (≈ 1.13 µM).

Staying with this experiment, now noted: Table 7, separate study.
Take `CC1(C)S[C@@H]2[C@H](NC(=O)Cc3ccccc3)C(=O)N2[C@H]1C(=O)O` [Penicillin G, reference compound]: the MIC came out at 32 µg/mL (≈ 95.7 µM).
The compound Bacitracin A [reference compound] had an MIC of 16 µg/mL.
On the same count and under the same terms, then Gentamicin C [reference compound], with 0.5 µg/mL.
Same read-out and setting: then Neomycin [reference compound], with 1 µg/mL.

The experiment is the same for the next values; noted with them: Tables 3 and 4.
For the compound Ac-FRWLLC-NH2 [FRWLLC], the IC-50 amounted to 15 µg/mL and the MIC is 13 to 26 µg/mL.
Taken in the same sequence, the figures for Ac-FRWLLL-NH2 [FRWLLL] were 18 µg/mL and 16 to 31 µg/mL.
In the same order, the values of Ac-FRWLLW-NH2 [FRWLLW] are 14 µg/mL and 12 to 24 µg/mL.
Taken in the same sequence, the figures for Ac-FRWWHI-NH2 [FRWWHI] were 21 µg/mL and 31 to 62 µg/mL.
Regarding Ac-RRWWCS-NH2 [RRWWCS], the IC-50 came to 5.9 µg/mL and the MIC fell in the range of 7 to 14 µg/mL.
In the case of Ac-RRWWCT-NH2 [RRWWCT], the IC-50 is 7.9 µg/mL and the MIC lay in the range of 4.9 to 10 µg/mL.
Compound Ac-RRWWCV-NH2 [RRWWCV] gave an IC-50 of 4.9 µg/mL and an MIC of 3.8 to 7.7 µg/mL.
Turning to Ac-RRWWRA-NH2 [RRWWRA], the IC-50 is 14 µg/mL and the MIC fell in the range of 18 to 36 µg/mL.
Taken in the same sequence, the figures for Ac-RRWWRC-NH2 [RRWWRC] were 8.2 µg/mL and 10 to 19 µg/mL.
In the case of “Ac-RRWWRF-NH2 [RRWWRF, Ac-Arg-Arg-Trp-Trp-Arg-PheNH2]”, the IC-50 came to 5.5 µg/mL and the MIC is 6 to 9 µg/mL.
Taken in the same sequence, the figures for Ac-RRWWRI-NH2 [RRWWRI] were 12 µg/mL and 12 to 23 µg/mL.
As to Ac-RRWWRL-NH2 [RRWWRL], the IC-50 worked out at 12 µg/mL and the MIC lay within 13 to 26 µg/mL.
